# Data: ChEMBL document CHEMBL6182828, “Medicinal chemistry-based perspectives on thiophene and its derivatives: exploring structural insights to discover plausible druggable leads” (RSC Med Chem, 2025)
# Key:
# [1] = tested on: Arthroderma pannicola; test: Antifungal activity against Arthroderma pannicola assessed as diameter of zone of inhibition; type: functional
# [2] = tested on: Candida albicans; test: Antifungal activity against Candida albicans assessed as zone of inhibition; type: functional
# [3] = Half life in po dosed human; type: ADME, organism-based; settings: in vivo
# [4] = molecular target: Acetylcholinesterase (Homo sapiens, UniProt P22303); test: Inhibition of AChE (unknown origin) by Ellman's method
# Chain of Acetylcholinesterase (P22303 whole entry): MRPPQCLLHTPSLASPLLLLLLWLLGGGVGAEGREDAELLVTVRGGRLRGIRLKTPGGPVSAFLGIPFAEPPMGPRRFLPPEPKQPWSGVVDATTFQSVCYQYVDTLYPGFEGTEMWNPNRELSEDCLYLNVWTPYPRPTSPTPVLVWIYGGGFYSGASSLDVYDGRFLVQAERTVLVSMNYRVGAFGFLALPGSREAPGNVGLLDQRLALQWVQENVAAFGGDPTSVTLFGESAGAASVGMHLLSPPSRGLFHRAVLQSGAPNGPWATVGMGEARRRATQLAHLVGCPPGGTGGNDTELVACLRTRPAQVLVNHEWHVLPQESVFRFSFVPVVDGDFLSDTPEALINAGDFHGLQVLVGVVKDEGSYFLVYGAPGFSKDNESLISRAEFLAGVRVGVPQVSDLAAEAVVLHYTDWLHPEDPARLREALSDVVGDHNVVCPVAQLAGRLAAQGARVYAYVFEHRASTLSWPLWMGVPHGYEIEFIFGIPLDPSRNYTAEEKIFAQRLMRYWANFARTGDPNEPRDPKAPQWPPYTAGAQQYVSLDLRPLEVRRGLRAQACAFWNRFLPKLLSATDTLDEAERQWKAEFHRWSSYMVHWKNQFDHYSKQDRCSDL
# [5] = tested on: Rattus norvegicus; test: Anti-inflammatory activity against carrageenan-induced paw edema in Albino rat assessed as inhibition of paw edema at 50 mg/kg, po relative to control; type: functional; design: scale not given: the % may be the effect or the level left
# [6] = molecular target: T1, Glucagon receptor (Homo sapiens, UniProt P47871); test: Antagonist activity at wild type human GCGR
# T1 sequence (P47871 whole entry): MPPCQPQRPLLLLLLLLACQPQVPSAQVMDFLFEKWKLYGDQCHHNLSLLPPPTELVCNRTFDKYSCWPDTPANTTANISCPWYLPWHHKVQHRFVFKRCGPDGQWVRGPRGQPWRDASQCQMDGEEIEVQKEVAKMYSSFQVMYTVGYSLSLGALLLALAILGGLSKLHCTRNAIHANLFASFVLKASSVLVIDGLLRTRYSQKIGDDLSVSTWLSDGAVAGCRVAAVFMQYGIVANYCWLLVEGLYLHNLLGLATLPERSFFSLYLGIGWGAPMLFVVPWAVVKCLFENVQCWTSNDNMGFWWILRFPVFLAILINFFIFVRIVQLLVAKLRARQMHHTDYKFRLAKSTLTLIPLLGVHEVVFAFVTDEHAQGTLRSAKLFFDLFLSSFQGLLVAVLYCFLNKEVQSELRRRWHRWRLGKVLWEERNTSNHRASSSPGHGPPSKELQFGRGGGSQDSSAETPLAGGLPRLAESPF
# [7] = molecular target: T1, Glucagon receptor; test: Antagonist activity at wild type human GCGR transfected in HEK293T cells assessed as intracellular cAMP accumulation incubated for 60 mins by FRET assay; type: functional, cell-based
# [8] = Inhibition of urease (unknown origin)
# [9] = tested on: Escherichia coli; test: Antibacterial activity against Escherichia coli ATCC 35218 assessed as zone of inhibition incubated for 48 hrs by agar diffusion method; type: functional
# [10] = tested on: Bacillus subtilis; test: Antibacterial activity against Bacillus subtilis ATCC 6633 assessed as zone of inhibition incubated for 48 hrs by agar diffusion method; type: functional
# [11] = tested on: dsRNA; test: Inhibition of double stranded RNA (unknown origin); type: nucleic-acid assay
# [12] = molecular target: T2, Polyunsaturated fatty acid 5-lipoxygenase (Homo sapiens, UniProt P09917); test: Inhibition of 5-LOX (unknown origin)
# T2 sequence (P09917 whole entry): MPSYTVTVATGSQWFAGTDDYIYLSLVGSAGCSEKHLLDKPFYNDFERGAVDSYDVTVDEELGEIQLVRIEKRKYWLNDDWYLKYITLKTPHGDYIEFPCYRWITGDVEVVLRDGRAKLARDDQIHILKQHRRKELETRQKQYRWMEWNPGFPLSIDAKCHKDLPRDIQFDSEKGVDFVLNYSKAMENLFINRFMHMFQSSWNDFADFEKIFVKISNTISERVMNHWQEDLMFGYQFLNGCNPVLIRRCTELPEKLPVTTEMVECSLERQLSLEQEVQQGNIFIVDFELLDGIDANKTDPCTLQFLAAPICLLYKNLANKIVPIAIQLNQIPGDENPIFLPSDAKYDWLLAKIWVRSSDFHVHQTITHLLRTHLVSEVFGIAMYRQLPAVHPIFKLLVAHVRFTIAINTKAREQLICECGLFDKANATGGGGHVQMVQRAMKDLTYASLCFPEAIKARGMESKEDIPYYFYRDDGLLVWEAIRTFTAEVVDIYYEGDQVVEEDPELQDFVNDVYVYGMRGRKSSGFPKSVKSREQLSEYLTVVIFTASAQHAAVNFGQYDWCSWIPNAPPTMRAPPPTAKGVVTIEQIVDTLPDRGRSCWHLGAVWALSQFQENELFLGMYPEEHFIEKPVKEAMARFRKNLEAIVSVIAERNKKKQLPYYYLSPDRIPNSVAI
# [13] = tested on: MCF7; test: Growth inhibition of human MCF7 cells incubated for 48 hrs by SRB assay; type: functional
# [14] = tested on: SF-268; test: Growth inhibition of human SF-268 cells incubated for 48 hrs by SRB assay; type: functional
# [15] = tested on: NCI-H460; test: Growth inhibition of human NCI-H460 cells incubated for 48 hrs by SRB assay; type: functional
# [16] = molecular target: Amine oxidase [flavin-containing] A (Homo sapiens, UniProt P21397); test: Inhibition of human MAO-A measured after 25 mins by Amplex Red reagent based fluorescence analysis
# Chain of Amine oxidase [flavin-containing] A (P21397 whole entry): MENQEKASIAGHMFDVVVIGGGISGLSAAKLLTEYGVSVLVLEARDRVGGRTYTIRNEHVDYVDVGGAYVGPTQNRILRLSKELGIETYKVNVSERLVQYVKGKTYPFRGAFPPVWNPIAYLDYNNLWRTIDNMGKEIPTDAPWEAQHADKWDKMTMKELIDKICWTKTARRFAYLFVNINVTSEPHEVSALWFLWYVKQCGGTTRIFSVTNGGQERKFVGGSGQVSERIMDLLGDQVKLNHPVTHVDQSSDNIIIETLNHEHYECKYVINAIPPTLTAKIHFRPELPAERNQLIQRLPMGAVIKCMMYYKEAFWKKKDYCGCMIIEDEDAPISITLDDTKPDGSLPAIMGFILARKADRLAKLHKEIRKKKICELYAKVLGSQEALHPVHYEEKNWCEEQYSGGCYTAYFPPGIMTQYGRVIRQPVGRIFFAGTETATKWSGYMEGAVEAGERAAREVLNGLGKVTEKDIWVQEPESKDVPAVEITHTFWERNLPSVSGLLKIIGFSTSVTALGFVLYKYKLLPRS
# [17] = Antioxidant activity assessed as DPPH radical scavenging activity at 10 uM incubated for 30 mins by absorbance based assay relative to control; type: functional
# [18] = molecular target: Alpha glucosidase (Homo sapiens, UniProt O43451+P10253+P14410+Q2M2H8); test: Inhibition of Alpha glucosidase (unknown origin); type: protein assay
# [19] = Inhibition of Alpha-amylase (unknown origin); design: species or system Homo sapiens
# [20] = tested on: Bacillus subtilis; test: Antibacterial activity against Bacillus subtilis ATCC 6633 assessed as zone of inhibition; type: functional
# [21] = tested on: Staphylococcus aureus; test: Antibacterial activity against Staphylococcus aureus ATCC 25923 assessed as zone of inhibition; type: functional
# [22] = Half life in human, iv; type: ADME
# [23] = tested on: HepG2; test: Cytotoxicity against human HepG2 cells assessed as reduction in cell growth incubated for 24 hrs by SRB assay; type: functional, cell-based; settings: HepG2, 24 h
# [24] = tested on: HA22T cell line; test: Cytotoxicity against human HA22T cell line assessed as reduction in cell growth incubated for 24 hrs by SRB assay; type: functional, cell-based
# [25] = tested on: NUGC-3; test: Cytotoxicity against human NUGC-3 cells assessed as reduction in cell growth incubated for 24 hrs by SRB assay; type: functional, cell-based; settings: NUGC-3, 24 h
# [26] = Cytotoxicity against human WI-38 cells assessed as reduction in cell growth incubated for 24 hrs by SRB assay; type: toxicity, cell-based
# [27] = tested on: MCF7; test: Cytotoxicity against human MCF7 cells assessed as reduction in cell growth incubated for 24 hrs by SRB assay; type: functional, cell-based; settings: MCF7, 24 h
# [28] = tested on: HONE1 cell line; test: Cytotoxicity against human HONE1 cell line assessed as reduction in cell growth incubated for 24 hrs by SRB assay; type: toxicity, cell-based; settings: HONE1, 24 h
# [29] = tested on: DLD-1; test: Cytotoxicity against human DLD-1 cells assessed as reduction in cell growth incubated for 24 hrs by SRB assay; type: functional, cell-based; settings: DLD-1, 24 h
# [30] = Elimination half life in human at 5 mg/kg, po; type: ADME, organism-based; settings: in vivo, read-out: LambdaZ (converted)
# [31] = Antioxidant activity assessed as DPPH radical scavenging activity; type: functional; settings: read-out: IC50
structure (smiles),measurement,setting,value
O=c1c2ccccc2nc(-c2sc3ccccc3c2Cl)n1-c1ccc(F)cc1,inhibition zone (IZ),[1],14 mm
same,inhibition zone (IZ),[2],14 mm
Cc1cc(C2=NO[C@@](c3cc(Cl)c(Cl)c(Cl)c3)(C(F)(F)F)C2)sc1C(=O)NCC(=O)NCC(F)(F)F [LOTILANER],half-life,[3],660 min
O=C(/C=C/c1cccs1)c1ccc(OCCCCBr)cc1,IC50,[4],420 nM
N#Cc1c(-c2ccc(N3CCOCC3)cc2)csc1N,Activity,[5],48.94%
Cc1cc(Cl)ccc1-c1ccc(NC(=O)C(Cc2ccc(C(=O)NCCS(=O)(=O)O)s2)c2ccc(-c3ccc(OC(F)(F)F)cc3)cc2)cc1 (stereo unspecified),IC50,[6],6.1 µM
same,IC50,[7],4.4 µM
Cc1ccc2c(c1)n(CN1CCN(c3ccccc3)CC1)c(=O)n2CN1CCN(c2ccccc2)CC1,IC50,[8],110 nM
Cc1ccsc1C(=CCCN1CCC[C@@H](C(=O)O)C1)c1sccc1C [TIAGABINE],half-life,[3],420 min
CONC(=O)Nc1ccc(-c2sc3c(c2CN(C)C)c(=O)n(-c2ccc(OC)nn2)c(=O)n3Cc2c(F)cccc2F)cc1 [RELUGOLIX],half-life,[3],1500 min
Cc1cc(Cl)ccc1-c1ccc(NC(=O)C(Cc2ccc(C(=O)NCCS(=O)(=O)O)s2)c2ccc(-c3ccc(C(C)(C)C)cc3)cc2)cc1 (stereo unspecified),IC50,[6],4.4 µM
same,IC50,[7],14.4 µM
O=c1c2ccccc2nc(-c2sc3ccccc3c2Cl)n1O,inhibition zone (IZ),[9],16 mm
same,inhibition zone (IZ),[10],15 mm
Clc1ccc(C2CC(c3ccc(Cl)s3)=NN2c2ccccc2)cc1 (stereo unspecified),IC50,[11],11 µM
COc1ccc(/C=C2\SC(=S)N(NC(=O)c3sc4ccccc4c3Cl)C2=O)cc1OC,IC50,[12],2330 nM
CCOC(=O)c1cc(C(=O)N/N=C(/C)[C@H]2CC[C@H]3[C@@H]4CC=C5C[C@@H](O)CC[C@]5(C)[C@H]4CC[C@]23C)c(Nc2ccccc2)s1,GI50,[13],10 nM
same,GI50,[14],30 nM
same,GI50,[15],10 nM
C/C(=N\N=C1/CS(=O)(=O)N(C)c2ccccc21)c1sccc1Cl,IC50,[16],1040 nM
Cc1cc(=O)oc2c(/C=N/NC(=O)c3sc4ccccc4c3Cl)c(O)ccc12,inhibition,[17],50%
COc1ccc(CNC(=O)Nc2sc3c(c2C#N)CCCC3)c(OC)c1,IC50,[18],0.59 µM
same,IC50,[19],30.4 µM
Clc1c(-c2nnc(CNc3ccccc3)o2)sc2ccccc12,inhibition zone (IZ),[20],16 mm
same,inhibition zone (IZ),[21],15 mm
O=c1[nH]c(-c2sc3ccccc3c2Cl)nc2ccccc12,inhibition zone (IZ),[9],12 mm
same,inhibition zone (IZ),[10],16 mm
CO[C@@]1(NC(=O)Cc2cccs2)C(=O)N2C(C(=O)O)=C(COC(N)=O)CS[C@@H]21 [CEFOXITIN],half-life,[22],41 min
O=c1c2ccccc2nc(-c2sc3ccccc3c2Cl)n1-c1ccc([N+](=O)[O-])cc1,inhibition zone (IZ),[1],17 mm
same,inhibition zone (IZ),[2],17 mm
N#CC(C#N)=NNc1sc2c(c1C1=NC(=O)C(Cc3ccc(Cl)cc3)S1)CCCC2 (stereo unspecified),IC50,[23],59 nM
same,IC50,[24],59 nM
same,IC50,[25],59 nM
same,IC50 at 24 h,[26],59 nM
same,IC50,[27],59 nM
same,IC50,[28],59 nM
same,IC50,[29],59 nM
COc1ccc2c(c1)c(CC(=O)O)c(C)n2C(=O)c1ccc(Cl)cc1 [INDOMETHACIN],Activity,[5],47.73%
CC(=O)Oc1cc2c(s1)CCN(C(C(=O)C1CC1)c1ccccc1F)C2 (stereo unspecified),half-life,[30],444 min
O=C(Nc1nc(-c2cc(Cl)cs2)c(N2CCN(C3CCCCC3)CC2)s1)c1cnc(N2CCC(C(=O)O)CC2)c(Cl)c1 [AVATROMBOPAG],half-life,[3],1140 min
COc1cc(/C=C/C(=O)c2cc3ccccc3s2)cc(OC)c1O,IC50,[31],6 µM
